The conditions of series [1]: after oral administration; cited from earlier work.
Series [2] is described as follows: In vitro release of RM, modified Franz diffusion cells with dialysis membrane, simulated nasal fluid. The conditions noted are these: simulated nasal fluid pH 6.5, 37 °C, 50 rpm. The class given is physicochemical. As for the experimental part: The in vitro release of RM from the optimized systems was investigated using modified Franz diffusion cells (Franz diffusion cell with dialysis membrane). In a few words, an exact volume of each optimized system was placed in the donor cell, and the dialysis process was performed against 50 mL of simulated nasal fluid (SNF; CaCl2.2H2O 0.32 mg/mL, NaCl 7.45 mg/mL, KCl 1.29 mg/mL, pH 6.5) maintained at 37 °C while stirring at 50 rpm. Three milliliter sample was withdrawn at each time interval (0.25, 0.5, 1, 1.5, 2, 3, 4, 6, 8, 10 and 12 h) and replaced with equal volumes of drug free SNF [39]. The amount of RM in each sample was measured spectrophotometrically at λmax 265 nm. The in vitro release profiles of the two optimized systems were compared to RM aqueous solution profile. Furthermore, the mean dissolution time (MDT) was calculated for both systems following Eq. (2):2 MDT=∑j=1ntj∗ΔMj/∑j=1nΔMj where j is the sample number, tj* is the midpoint time between t and tj-1 that can be calculated by (t + tj-1/2), n is the number of release samples, and ∆Mj is the additional amount released between t and tj-1. The higher the MDT value, the slower the drug release rate.

A short description of series [3]: In vivo pharmacokinetics and brain targeting in rats, LC-MS/MS of brain homogenate and plasma. The conditions noted are these: rat, RM in brain, intravenous, 0.05 mg/kg/day. As for the experimental part:
In order to evaluate the in vivo performance of the selected MST 2, an in vivo pharmacokinetics study was performed to measure the bioavailability and brain-targeting ability of the selected system after intranasal administration into rats. The study protocol was previously approved by the research ethics committee for the experimental and clinical studies at the Faculty of Pharmacy Cairo University with approval code (PI 2680). Briefly, forty-eight rats were divided into two groups (n = 24), and each group was divided into eight subgroups (n = 3). The average weight of the rats was 180 gm, and they were subjected to 12-h cycles of light/darkness. They were kept in cages with free access to food and water. The relative humidity was maintained in range 40–60%, and the temperature ranged from 20 to 25 °C during the experiment.
The first group was administered the optimized MST 2 equivalent to 0.05 mg/kg/day of RM [44] intranasally (IN) using a polyethylene tube which was attached to Hamilton syringe, whereas the second group was administered the same dose of an intravenous (IV) RM aqueous solution through the tail vein. Blood samples were collected from the rats at specified time intervals (0.25, 0.5, 1, 1.5, 2, 4, 8, and 12 h) via the puncture of lateral vesicular vein, centrifuged at 4000 rpm for 15 min, and separated to obtain the plasma that was then frozen at –80 °C until further investigations. Additionally, six rats (three of each subgroup) were anaesthetized and sacrificed to separate the brain tissues at 0.5, 1, 2, 4, and 8 h. The brain tissues were washed twice with normal saline and then weighed. An equal weight of normal saline was added to each brain sample, which was then homogenized (Heidolph DIAX 900, Heidolph Instruments, Schwabach, Germany) and kept frozen at – 80 °C until analysis. RM levels in plasma samples and brain homogenates were measured by a validated liquid chromatography-mass spectrometry (LC–MS/MS) method.
Calibration curves of RM in plasma and brain homogenate were constructed using clonazepam as internal standard (IS). Briefly, specific volumes of RM stock solution were mixed with one hundred microliter of clonazepam stock solution (100 ng/mL) and then spiked into 0.5 mL plasma or brain homogenate to obtain the following concentrations: 0.1, 1, 10, 20, 100, and 1000 ng/mL. For RM extraction from the samples, 0.5 mL of plasma samples or brain homogenates was mixed with 100 µL of clonazepam solution as IS and 4 mL of ethyl acetate to precipitate the proteins followed by vortexing (Stuart SA8, BiBBY Sterlin Ltd., UK) for 5 min and centrifugation for 10 min at 3000 rpm. The supernatant was transferred to a new tube to evaporate the organic solvent under vacuum using a vacuum concentrator (Eppendorf 5301, Hamburg, Germany). The obtained dry residue was reconstituted in 0.5 mL of the mobile phase (acetonitrile: 0.1% formic acid solution in water at a ratio (80:20 v/v)) after then, 9 µL of the obtained solution was injected into (LC–MS/MS) for analysis.
The analysis of RM in plasma samples and brain homogenates was done by LC–MS/MS (Shimadzu CBM20A, Japan) fitted with mass spectrometer AB Sciex 4000 (Sciex Instruments, USA) and auto-sampler (Shimadzu SIL20A, Japan). The mass spectrometer was equipped with turbo ion spray having a positive polarity with temperature set at 500 °C. The samples were analyzed by injecting aliquots of 9 µL, and the mobile phase flow rate was adjusted at 0.8 mL/min. The transition was from 172.036 to 117.000 m/z for RM and from 316.024 to 270 m/z in case of clonazepam. The analysis of the obtained results was done using Analyst software (version 1.6.3, Sciex Instruments, Framingham, USA).
Non-compartmental pharmacokinetic model was applied to analyze RM plasma and brain levels using Kinetica software (version 2000, Arlington, USA). […]

SMILES strings stand for the structures. Counter-ions that a name gives are not always drawn. Like-named read-outs stand apart in the source and are kept apart here.

As usually defined, the AUC(0-inf) is total exposure, with the tail of the curve extrapolated. By Cmax is commonly meant the highest concentration seen after dosing. As a reminder, the Tmax is the time at which the peak concentration occurs. The term MRT denotes a mean duration of stay, worked out from the concentration-time curve. Turning to `C#CCN[C@@H]1CCc2ccccc21` [RM, Rasagiline mesylate], in series [1], the half-life was 1.5 to 3.5 h and the “time to reach maximum concentration in plasma” value is listed as not above 1 h. Moreover, in series [2], the “mean dissolution time (MDT)” value is 0.333 ± 0.0991 h and the “time of complete release of RM” value is recorded as 4 h. Moreover, in series [3], the AUC(0-inf) is 28 ± 1.84 ng·h/mL, the Cmax was 15.8 ± 0.34 ng/mL and the Tmax came out at 30 min. Further, in series [3] (read-out: K (hr^−1) elimination rate constant (converted)), the k el was 0.377 h⁻¹. In addition, the MRT in series [3] (read-out: MRT (hr) mean residence time) was found to be 2.27 ± 0.71 h. Further, in series [3] (read-out: T1/2 half (converted)), the half-life is 110 ± 14.4 min.

These data come from PMC9981512, “Thin film hydration versus modified spraying technique to fabricate intranasal spanlastic nanovesicles for rasagiline mesylate brain delivery: Characterization, statistical optimization, and in vivo pharmacokinetic evaluation” (Drug Delivery and Translational Research, 2022).
